Measured values taken from PubChem BioAssay AID1963980 (Molecular Pharmacology Branch, DTP, NCI, 2024).

Test system: 475296-252-R-J1-PDC spheroid viability
Assay: Anticancer human tumor 475296-252-R-J1-PDC patient-derived rectal carcinoma cell line growth inhibition [PI3K]
Details: spheroids with HUVEC and MSC; for IC50: curve of first compound; for viability, T/C: stronger effect = lower value
Method in brief: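 Combination activity was assessed by viability in multicellular tumor spheroids carrying HUVEC and MSC components. Agents were tested with PI3K inhibitors from a Cmax-based top dose (or 10 microM) downward in half-log increments.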

[1] = second compound 0.0316 µM, first compound 0.0316 µM
[2] = second compound 0.0316 µM, first compound 0.1 µM
[3] = second compound 0.0316 µM, first compound 0.316 µM
[4] = second compound 0.0316 µM, first compound 1 µM
[5] = second compound 0.0316 µM, first compound 3.16 µM
[6] = second compound 0.0316 µM, first compound 10 µM
[7] = second compound 0.1 µM, first compound 0.0316 µM
[8] = second compound 0.1 µM, first compound 0.1 µM
[9] = second compound 0.1 µM, first compound 0.316 µM
[10] = second compound 0.1 µM, first compound 1 µM
[11] = second compound 0.1 µM, first compound 3.16 µM
[12] = second compound 0.1 µM, first compound 10 µM
[13] = second compound 0.316 µM, first compound 0.0316 µM
[14] = second compound 0.316 µM, first compound 0.1 µM
[15] = second compound 0.316 µM, first compound 0.316 µM
[16] = second compound 0.316 µM, first compound 1 µM
[17] = second compound 0.316 µM, first compound 3.16 µM
[18] = second compound 0.316 µM, first compound 10 µM
[19] = second compound 1 µM, first compound 0.0316 µM
[20] = second compound 1 µM, first compound 0.1 µM
[21] = second compound 1 µM, first compound 0.316 µM
[22] = second compound 1 µM, first compound 1 µM
[23] = second compound 1 µM, first compound 3.16 µM
[24] = second compound 1 µM, first compound 10 µM
[25] = second compound 3.16 µM, first compound 0.0316 µM
[26] = second compound 3.16 µM, first compound 0.1 µM
[27] = second compound 3.16 µM, first compound 0.316 µM
[28] = second compound 3.16 µM, first compound 1 µM
[29] = second compound 3.16 µM, first compound 3.16 µM
[30] = second compound 3.16 µM, first compound 10 µM
[31] = second compound 10 µM, first compound 0.0316 µM
[32] = second compound 10 µM, first compound 0.1 µM
[33] = second compound 10 µM, first compound 0.316 µM
[34] = second compound 10 µM, first compound 1 µM
[35] = second compound 10 µM, first compound 3.16 µM
[36] = second compound 10 µM, first compound 10 µM
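Note: spheroids exposed to agents for seven days before readout.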

For `C#Cc1c(F)ccc2cc(O)cc(-c3ncc4c(N5CC6CCC(C5)N6)nc(OCC56CCCN5CC(F)C6)nc4c3F)c12` (stereo unspecified) + Cc1nc(NC(=O)N2CCCC2C(N)=O)sc1-c1ccnc(C(C)(C)C(F)(F)F)c1, the IC50 (second compound 0.0316 µM) was over 10 µM, the IC50 (second compound 0.1 µM) was over 10 µM and the IC50 (second compound 0.316 µM) was 8.41 µM. The IC50 (second compound 1 µM) was 4.42 µM, the IC50 (second compound 3.16 µM) was 0.689 µM and the IC50 (second compound 10 µM) was 0.267 µM. It also gave a viability, T/C [1] of 88.4%, a viability, T/C [2] of 84.1% and a viability, T/C [3] of 88.5%. For the same molecule, the viability, T/C [4] was 74.2%, the viability, T/C [5] was 67.9% and the viability, T/C [6] was 66%. For the same molecule, the viability, T/C [7] was 87.1%, the viability, T/C [8] was 78.9% and the viability, T/C [9] was 88.1%. It also gave a viability, T/C [10] of 64.6%, a viability, T/C [11] of 66.9% and a viability, T/C [12] of 59%. For the same molecule, the viability, T/C [13] was 80.2%, the viability, T/C [14] was 84.7% and the viability, T/C [15] was 73.6%. It also gave a viability, T/C [16] of 71.7%, a viability, T/C [17] of 61.1% and a viability, T/C [18] of 48%. It also gave a viability, T/C [19] of 78.4%, a viability, T/C [20] of 82.8% and a viability, T/C [21] of 72%. It also gave a viability, T/C [22] of 65.5%, a viability, T/C [23] of 60.3% and a viability, T/C [24] of 32.7%. The viability, T/C [25] was 89.1%, the viability, T/C [26] was 75.3% and the viability, T/C [27] was 65.1%. The viability, T/C [28] was 44.8%, the viability, T/C [29] was 21.7% and the viability, T/C [30] was 10.4%. It also gave a viability, T/C [31] of 73.4%, a viability, T/C [32] of 70.2% and a viability, T/C [33] of 46.6%. For the same molecule, the viability, T/C [34] was 9.2%, the viability, T/C [35] was 5.28% and the viability, T/C [36] was 3.54%.

Molecule `CC(Cn1ccc(-c2ccc(C#N)c(Cl)c2)n1)NC(=O)c1cc(C(C)O)[nH]n1` (stereo unspecified) + Cc1nc(NC(=O)N2CCCC2C(N)=O)sc1-c1ccnc(C(C)(C)C(F)(F)F)c1 has an IC50 (second compound 0.0316 µM) of over 10 µM, an IC50 (second compound 0.1 µM) of over 10 µM and an IC50 (second compound 0.316 µM) of over 10 µM. It also gave an IC50 (second compound 1 µM) of over 10 µM, an IC50 (second compound 3.16 µM) of over 10 µM and an IC50 (second compound 10 µM) of over 10 µM. For the same molecule, the viability, T/C [1] was 105%, the viability, T/C [2] was 108% and the viability, T/C [3] was 110%. For the same molecule, the viability, T/C [4] was 98.4%, the viability, T/C [5] was 105% and the viability, T/C [6] was 107%. For the same molecule, the viability, T/C [7] was 98.1%, the viability, T/C [8] was 99.7% and the viability, T/C [9] was 111%. The viability, T/C [10] was 105%, the viability, T/C [11] was 120% and the viability, T/C [12] was 112%. It also gave a viability, T/C [13] of 93.1%, a viability, T/C [14] of 104% and a viability, T/C [15] of 103%. The viability, T/C [16] was 97.9%, the viability, T/C [17] was 102% and the viability, T/C [18] was 99.1%. The viability, T/C [19] was 95.9%, the viability, T/C [20] was 108% and the viability, T/C [21] was 91.4%. The viability, T/C [22] was 99.2%, the viability, T/C [23] was 111% and the viability, T/C [24] was 111%. For the same molecule, the viability, T/C [25] was 98.4%, the viability, T/C [26] was 96.1% and the viability, T/C [27] was 103%. The viability, T/C [28] was 105%, the viability, T/C [29] was 105% and the viability, T/C [30] was 101%. It also gave a viability, T/C [31] of 90.2%, a viability, T/C [32] of 84.3% and a viability, T/C [33] of 97%. For the same molecule, the viability, T/C [34] was 98.9%, the viability, T/C [35] was 95% and the viability, T/C [36] was 91.2%.

`CC1(C)CCC(Nc2ncc(C(F)(F)F)c(-c3c[nH]c4c(P(C)(C)=O)c(C#N)ccc34)n2)CN1` (stereo unspecified) + Cc1nc(NC(=O)N2CCCC2C(N)=O)sc1-c1ccnc(C(C)(C)C(F)(F)F)c1 showed an IC50 (second compound 0.0316 µM) of over 10 µM, an IC50 (second compound 0.1 µM) of over 10 µM and an IC50 (second compound 0.316 µM) of over 10 µM. The IC50 (second compound 1 µM) was over 10 µM, the IC50 (second compound 3.16 µM) was over 10 µM and the IC50 (second compound 10 µM) was over 10 µM. For the same molecule, the viability, T/C [1] was 89.6%, the viability, T/C [2] was 90.4% and the viability, T/C [3] was 119%. The viability, T/C [4] was 139%, the viability, T/C [5] was 178% and the viability, T/C [6] was 82.4%. For the same molecule, the viability, T/C [7] was 97.2%, the viability, T/C [8] was 96.4% and the viability, T/C [9] was 106%. For the same molecule, the viability, T/C [10] was 142%, the viability, T/C [11] was 176% and the viability, T/C [12] was 91.7%. For the same molecule, the viability, T/C [13] was 95.2%, the viability, T/C [14] was 104% and the viability, T/C [15] was 97.3%. It also gave a viability, T/C [16] of 129%, a viability, T/C [17] of 193% and a viability, T/C [18] of 83.2%. The viability, T/C [19] was 100%, the viability, T/C [20] was 111% and the viability, T/C [21] was 110%. It also gave a viability, T/C [22] of 143%, a viability, T/C [23] of 165% and a viability, T/C [24] of 81.5%. The viability, T/C [25] was 99.3%, the viability, T/C [26] was 106% and the viability, T/C [27] was 109%. For the same molecule, the viability, T/C [28] was 121%, the viability, T/C [29] was 139% and the viability, T/C [30] was 72.9%. It also gave a viability, T/C [31] of 104%, a viability, T/C [32] of 97.1% and a viability, T/C [33] of 94%. For the same molecule, the viability, T/C [34] was 107%, the viability, T/C [35] was 121% and the viability, T/C [36] was 62.9%.
